Source: US8394859B2, “Combretastatin analogs with tubulin binding activity” (Baylor University, priority 2005, dated 2013)
Values after ≈ are worked out from the molar mass of the structure shown.

Experiments:
purified tubulin = assay: In vitro inhibition of tubulin polymerization; assay type: biochemical; settings: purified bovine brain tubulin 1.5 mg/ml, preincubated 15 minutes at 37° C., GTP-induced, 350 nm
Experimental: IC50 values for tubulin polymerization were determined according to a previously described procedure (Bai et al., Cancer Research, 1996) and are summarized in Table 3 below. Purified tubulin is obtained from bovine brain cells as previously described (Hamel and Lin, Biochemistry, 1984). Various amounts of inhibitor were preincubated for 15 minutes at 37° C. with purified tubulin. After the incubation period, the reaction was cooled and GTP was added to induce tubulin polymerization. Polymerization was then monitored in a Gilford spectrophotometer at 350 nm. The final reaction mixtures (0.25 ml) contained 1.5 mg/ml tubulin, 0.6 mg/ml microtubule-associated proteins (MAPs), 0.5 mM GTP, […], 4% DMSO and 0.1M 4-morpholineethanesulfonate buffer (MES, pH 6.4). IC50 is the amount of inhibitor needed to inhibit tubulin polymerization 50% with respect to the amount of […] that occurs in the absence of inhibitor.

DU-145 = assay: In vitro growth inhibition, SRB assay, prostate DU-145; assay type: cell-based; settings: Homo sapiens, prostate DU-145, 48 hours incubation, read-out: GI50 (μM/mL) for Cell Line DU-145
Experimental: (§1) Newly prepared compounds were evaluated for cytotoxic activity against a variety of cell lines derived from human tumors using an assay system similar to the National Cancer Institute procedure previously described (Monks et al., J. Natl. Cancer Inst., 1991). Briefly, the cell suspensions, diluted according to the particular cell type and the expected target cell density (5,000-40,000 cells per well based on cell growth characteristics), were added by pipet (100 ul) to 96-well microtiter plates. Inoculates were allowed a preincubation time of 24-28 hours at 37 C for stabilization. Incubation with the inhibitor compounds lasted for 48 hours in 5% CO2 atmosphere and 100% humidity. Determination of cell growth was performed by in situ fixation of cells, followed by staining with a protein-binding dye sulforhodamine B (SRB), which binds to the basic amino acids of cellular macromolecules. The solubilized stain was measured spectrophotometrically.
(§2) Several compounds were evaluated for cytotoxic activity against […] P388 leukemia cell lines. The effective dose or ED50 value (defined as the effective dosage required for inhibition of 50% of cell growth) was measured. These and additional compounds were evaluated in terms of growth inhibitory activity against several other human cancer cell lines including: central nervous system (“CNS”, SF-268), pancreas (BXPC-3), non-small cell lung cancer (“lung-NSC”, NCI-H460), breast (MCF-7), colon (KM20L2), ovarian (OVCAR-3), and prostate (DU-145). The growth inhibition GI50 (defined as the dosage required for inhibition of tumor cell growth by 50%) is listed for each cell line.

BXPC-3 = assay: In vitro growth inhibition, SRB assay, pancreas BXPC-3; assay type: cell-based; settings: Homo sapiens, 48 hours incubation, read-out: GI50 (μM/mL) for Cell Line BXP-3
Experimental: as §1, §2

SF-268 = assay: In vitro growth inhibition, SRB assay, CNS SF-268; assay type: cell-based; settings: Homo sapiens, CNS SF-268, 48 hours incubation, read-out: GI50 (μM/mL) for Cell Line SF-268
Experimental: as §1, §2

KM20L2 = assay: In vitro growth inhibition, SRB assay, colon KM20L2; assay type: cell-based; settings: Homo sapiens, KM-20L2, colon KM20L2, 48 hours incubation, read-out: GI50 (μM/mL) for Cell Line KM20L2
Experimental: as §1, §2

NCI-H460 = assay: In vitro growth inhibition, SRB assay, lung-NSC NCI-H460; assay type: cell-based; settings: Homo sapiens, lung-NSC NCI-H460, 48 hours incubation, read-out: GI50 (μM/mL) for Cell Line NCI-H460
Experimental: as §1, §2

MCF-7 = assay: In vitro growth inhibition, SRB assay, breast MCF-7; assay type: cell-based; settings: Homo sapiens, MCF7, breast MCF-7, 48 hours incubation, read-out: GI50 (μM/mL) for Cell Line MCF-7
Experimental: as §1, §2

## COc1ccc2c(c1)CCCC(c1cc(OC)c(OC)c(OC)c1)=C2 [Compound 1, 3-Methoxy-8-(3,4,5-trimethoxy-phenyl)-6,7-dihydro-5H-benzocycloheptene]
DU-145
  GI50: 0.33 µg/mL (≈ 0.969 µM)
BXPC-3
  GI50: 0.4 µg/mL (≈ 1.18 µM)
Purified tubulin
  IC50: ~40 µM
SF-268
  GI50: 0.28 µg/mL (≈ 0.823 µM)
KM20L2
  GI50: 0.2 µg/mL (≈ 0.588 µM)
NCI-H460
  GI50: 0.23 µg/mL (≈ 0.676 µM)
MCF-7
  GI50: 0.32 µg/mL (≈ 0.94 µM)

## COc1ccc2c(c1)CCCC=C2c1cc(OC)c(OC)c(OC)c1 [Compound 2, 3-Methoxy-9-(3,4,5-trimethoxy-phenyl)-6,7-dihydro-5H-benzocycloheptene]
DU-145
  GI50: > 10 µg/mL
BXPC-3
  GI50: > 10 µg/mL
Purified tubulin
  IC50: 1.4 ± 0.2 µM
SF-268
  GI50: > 10 µg/mL
KM20L2
  GI50: > 10 µg/mL
NCI-H460
  GI50: > 10 µg/mL
MCF-7
  GI50: > 10 µg/mL

## COc1ccc2c(c1O)CCCC(c1cc(OC)c(OC)c(OC)c1)=C2 [Compound 3, 2-Methoxy-6-(3,4,5-trimethoxy-phenyl)-8,9-dihydro-7H-benzocyclohepten-1-ol]
Purified tubulin
  IC50: ~40 µM

## COc1ccc(C(=O)C2=CCCCc3c2cc(OC)c(OC)c3OC)c(O)c1O [Compound 23, (2,3-Dihydroxy-4-methoxy-phenyl)-(1,2,3-trimethoxy-8,9-dihydro-7H-benzocyclohepten-5-yl)-methanone]
DU-145
  GI50: 0.026 µg/mL (≈ 0.0649 µM)
BXPC-3
  GI50: 0.017 µg/mL (≈ 0.0425 µM)
Purified tubulin
  IC50: ~40 µM
SF-268
  GI50: 0.009 µg/mL (≈ 0.0225 µM)
KM20L2
  GI50: 0.031 µg/mL (≈ 0.0774 µM)
NCI-H460
  GI50: 0.023 µg/mL (≈ 0.0574 µM)
MCF-7
  GI50: 0.0059 µg/mL (≈ 0.0147 µM)

## COc1ccc(C(=O)C2=CCCCc3c2cc(OC)c(OC)c3OC)cc1O [Compound 24, (3-Hydroxy-4-methoxy-phenyl)-(1,2,3-trimethoxy-8,9-dihydro-7H-benzocyclohepten-5-yl)-methanone]
Purified tubulin
  IC50: ~40 µM
